Measured values taken from the kinase profiling compilation of Christmann-Franck et al. (2016).

Assays:
Test in all cases: radiometric filter-binding kinase assay, Kinase HotSpot
Settings in all cases: compound 0.5 µM; ATP 10 µM
ACVRL1 (human) = ACVRL1 (human) (UniProt P37023)
CAMK2B (human) = CAMK2B (human) (UniProt Q13554)
CAMKK2 (human) = CAMKK2 (human) (UniProt Q96RR4)
CHUK (human) = CHUK (human) (UniProt O15111)
CSNK1E (human) = CSNK1E (human) (UniProt P49674)
CSNK1G1 (human) = CSNK1G1 (human) (UniProt Q9HCP0)
DAPK3 (human) = DAPK3 (human) (UniProt O43293)
EGFR (human) = EGFR (human) (UniProt P00533)
EPHA2 (human) = EPHA2 (human) (UniProt P29317)
EPHB2 (human) = EPHB2 (human) (UniProt P29323)
ERBB2 (human) = ERBB2 (human) (UniProt P04626)
FER (human) = FER (human) (UniProt P16591)
FER (human), sequence (P16591 whole entry, looked up): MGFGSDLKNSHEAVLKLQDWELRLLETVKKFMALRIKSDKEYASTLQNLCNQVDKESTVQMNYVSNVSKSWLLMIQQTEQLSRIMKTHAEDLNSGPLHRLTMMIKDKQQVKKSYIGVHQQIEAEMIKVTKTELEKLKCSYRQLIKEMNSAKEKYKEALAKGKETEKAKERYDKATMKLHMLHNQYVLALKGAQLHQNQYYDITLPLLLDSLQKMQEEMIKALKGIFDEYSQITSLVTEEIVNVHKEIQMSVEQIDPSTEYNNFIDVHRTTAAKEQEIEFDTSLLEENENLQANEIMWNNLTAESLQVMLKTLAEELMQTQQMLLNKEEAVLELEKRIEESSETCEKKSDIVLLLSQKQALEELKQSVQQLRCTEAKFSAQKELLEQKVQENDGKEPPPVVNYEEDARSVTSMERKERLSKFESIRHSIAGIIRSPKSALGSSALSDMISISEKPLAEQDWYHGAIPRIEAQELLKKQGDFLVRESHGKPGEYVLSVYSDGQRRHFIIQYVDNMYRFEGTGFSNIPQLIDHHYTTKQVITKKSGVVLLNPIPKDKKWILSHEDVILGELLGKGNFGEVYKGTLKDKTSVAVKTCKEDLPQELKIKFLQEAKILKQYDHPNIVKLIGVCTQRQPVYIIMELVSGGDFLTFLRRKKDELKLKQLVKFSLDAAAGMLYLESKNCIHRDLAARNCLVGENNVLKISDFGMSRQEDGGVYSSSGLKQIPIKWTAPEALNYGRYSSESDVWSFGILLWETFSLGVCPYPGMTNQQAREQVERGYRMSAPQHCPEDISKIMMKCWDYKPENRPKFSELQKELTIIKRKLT

GRK6 (human) = GRK6 (human) (UniProt P43250)
GSK3A (human) = GSK3A (human) (UniProt P49840)
GSK3A (human), sequence (P49840 whole entry, looked up): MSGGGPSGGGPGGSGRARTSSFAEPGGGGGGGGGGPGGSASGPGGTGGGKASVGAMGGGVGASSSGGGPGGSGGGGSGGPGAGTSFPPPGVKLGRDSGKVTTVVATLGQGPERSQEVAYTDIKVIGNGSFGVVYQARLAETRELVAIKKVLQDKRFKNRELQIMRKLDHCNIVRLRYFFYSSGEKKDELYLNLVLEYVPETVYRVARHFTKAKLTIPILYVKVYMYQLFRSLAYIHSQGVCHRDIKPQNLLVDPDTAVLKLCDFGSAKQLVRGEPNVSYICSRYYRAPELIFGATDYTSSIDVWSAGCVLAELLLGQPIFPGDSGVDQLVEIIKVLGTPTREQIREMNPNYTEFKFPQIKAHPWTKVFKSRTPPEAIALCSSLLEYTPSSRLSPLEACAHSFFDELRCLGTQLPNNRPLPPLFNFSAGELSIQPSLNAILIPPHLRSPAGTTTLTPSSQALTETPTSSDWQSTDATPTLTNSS

INSRR (human) = INSRR (human) (UniProt P14616)
IRAK1 (human) = IRAK1 (human) (UniProt P51617)
[1] = test system: MAP2K6 (human), P52564 [S207E/T211E]
MAP3K2 (human) = MAP3K2 (human) (UniProt Q9Y2U5)
MAP3K7 TAB1 (human) = MAP3K7 TAB1 (human) (UniProt O43318+Q15750)
MAPK13 (human) = MAPK13 (human) (UniProt O15264)
MERTK (human) = MERTK (human) (UniProt Q12866)
MLTK (human) = MLTK (human) (UniProt Q9NYL2)
MLTK (human), sequence (Q9NYL2 whole entry, looked up): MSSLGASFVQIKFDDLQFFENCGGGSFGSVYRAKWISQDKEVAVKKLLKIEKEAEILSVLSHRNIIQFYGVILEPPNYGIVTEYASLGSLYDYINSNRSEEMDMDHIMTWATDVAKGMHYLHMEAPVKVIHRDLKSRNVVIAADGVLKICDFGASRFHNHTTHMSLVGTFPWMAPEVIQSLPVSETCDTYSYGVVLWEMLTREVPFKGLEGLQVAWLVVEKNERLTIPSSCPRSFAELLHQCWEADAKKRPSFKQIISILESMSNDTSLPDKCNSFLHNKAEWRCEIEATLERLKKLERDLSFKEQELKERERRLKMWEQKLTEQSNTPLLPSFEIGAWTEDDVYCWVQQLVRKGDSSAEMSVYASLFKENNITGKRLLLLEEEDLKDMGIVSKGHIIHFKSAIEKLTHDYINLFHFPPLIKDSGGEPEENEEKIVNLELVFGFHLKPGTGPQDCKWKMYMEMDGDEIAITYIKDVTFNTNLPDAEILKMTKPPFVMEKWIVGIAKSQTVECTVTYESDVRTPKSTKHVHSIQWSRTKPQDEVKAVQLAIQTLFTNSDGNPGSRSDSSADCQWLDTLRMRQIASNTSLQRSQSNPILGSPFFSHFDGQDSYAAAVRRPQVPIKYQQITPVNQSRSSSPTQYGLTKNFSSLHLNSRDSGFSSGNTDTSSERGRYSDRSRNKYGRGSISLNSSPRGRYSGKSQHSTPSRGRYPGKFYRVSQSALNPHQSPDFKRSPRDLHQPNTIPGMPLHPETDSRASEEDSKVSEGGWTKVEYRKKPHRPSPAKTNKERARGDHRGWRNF

MYLK2 (human) = MYLK2 (human) (UniProt Q9H1R3)
NEK1 (human) = NEK1 (human) (UniProt Q96PY6)
NLK (human) = NLK (human) (UniProt Q9UBE8)
NTRK1 (human) = NTRK1 (human) (UniProt P04629)
PAK3 (human) = PAK3 (human) (UniProt O75914)
PAK6 (human) = PAK6 (human) (UniProt Q9NQU5)
PDGFRB (human) = PDGFRB (human) (UniProt P09619)
PLK3 (human) = PLK3 (human) (UniProt Q9H4B4)
PRKCG (human) = PRKCG (human) (UniProt P05129)
PRKD2 (human) = PRKD2 (human) (UniProt Q9BZL6)
PRKD2 (human), sequence (Q9BZL6 whole entry, looked up): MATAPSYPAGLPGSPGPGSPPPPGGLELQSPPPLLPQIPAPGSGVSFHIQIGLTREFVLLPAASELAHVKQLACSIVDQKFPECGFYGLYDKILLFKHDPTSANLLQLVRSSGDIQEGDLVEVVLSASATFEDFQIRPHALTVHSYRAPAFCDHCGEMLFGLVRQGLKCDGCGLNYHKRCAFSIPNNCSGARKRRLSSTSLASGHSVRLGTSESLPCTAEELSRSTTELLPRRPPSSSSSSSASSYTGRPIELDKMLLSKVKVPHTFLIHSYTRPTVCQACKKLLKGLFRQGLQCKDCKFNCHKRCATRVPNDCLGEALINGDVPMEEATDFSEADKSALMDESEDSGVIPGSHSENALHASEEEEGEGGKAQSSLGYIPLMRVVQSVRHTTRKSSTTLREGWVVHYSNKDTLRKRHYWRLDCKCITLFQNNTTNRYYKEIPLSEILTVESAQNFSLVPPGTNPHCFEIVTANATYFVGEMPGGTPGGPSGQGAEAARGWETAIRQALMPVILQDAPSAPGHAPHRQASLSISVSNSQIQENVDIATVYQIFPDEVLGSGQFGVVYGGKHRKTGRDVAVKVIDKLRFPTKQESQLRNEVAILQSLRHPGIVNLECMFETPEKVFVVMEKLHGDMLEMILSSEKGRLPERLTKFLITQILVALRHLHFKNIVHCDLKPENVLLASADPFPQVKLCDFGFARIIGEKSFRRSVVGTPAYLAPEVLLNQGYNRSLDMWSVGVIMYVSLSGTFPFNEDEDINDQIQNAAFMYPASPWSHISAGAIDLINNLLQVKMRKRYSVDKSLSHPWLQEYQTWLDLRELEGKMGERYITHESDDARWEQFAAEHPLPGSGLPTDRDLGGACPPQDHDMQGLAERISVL

PTK2 (human) = PTK2 (human) (UniProt Q05397)
PTK2B (human) = PTK2B (human) (UniProt Q14289)
RPS6KA4 KD2 (human) = RPS6KA4 KD2 (human) (UniProt O75676)
RPS6KA6 KD1 KD2 (human) = RPS6KA6 KD1 KD2 (human) (UniProt Q9UK32)
SRPK1 (human) = SRPK1 (human) (UniProt Q96SB4)
SRPK1 (human), sequence (Q96SB4 whole entry, looked up): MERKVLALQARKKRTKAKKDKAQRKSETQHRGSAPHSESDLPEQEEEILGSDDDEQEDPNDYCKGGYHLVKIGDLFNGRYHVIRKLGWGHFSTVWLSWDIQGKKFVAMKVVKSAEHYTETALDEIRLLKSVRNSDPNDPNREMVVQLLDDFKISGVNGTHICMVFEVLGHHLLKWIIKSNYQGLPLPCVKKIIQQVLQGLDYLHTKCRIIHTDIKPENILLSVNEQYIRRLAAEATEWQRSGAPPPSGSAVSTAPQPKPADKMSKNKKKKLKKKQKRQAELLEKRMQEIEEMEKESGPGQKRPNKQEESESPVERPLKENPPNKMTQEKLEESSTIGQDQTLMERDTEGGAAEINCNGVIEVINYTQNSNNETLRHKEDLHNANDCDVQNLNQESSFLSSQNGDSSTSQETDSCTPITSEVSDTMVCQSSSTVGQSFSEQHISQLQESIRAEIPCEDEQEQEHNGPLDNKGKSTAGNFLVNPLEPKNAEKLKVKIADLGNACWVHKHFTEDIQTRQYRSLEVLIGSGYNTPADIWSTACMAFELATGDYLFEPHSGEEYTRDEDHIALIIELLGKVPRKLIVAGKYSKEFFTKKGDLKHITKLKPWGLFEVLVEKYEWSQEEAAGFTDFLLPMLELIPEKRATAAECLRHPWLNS

SRPK3 (human) = SRPK3 (human) (UniProt Q9UPE1)
STK25 (human) = STK25 (human) (UniProt O00506)
STK33 (human) = STK33 (human) (UniProt Q9BYT3)
STK33 (human), sequence (Q9BYT3 whole entry, looked up): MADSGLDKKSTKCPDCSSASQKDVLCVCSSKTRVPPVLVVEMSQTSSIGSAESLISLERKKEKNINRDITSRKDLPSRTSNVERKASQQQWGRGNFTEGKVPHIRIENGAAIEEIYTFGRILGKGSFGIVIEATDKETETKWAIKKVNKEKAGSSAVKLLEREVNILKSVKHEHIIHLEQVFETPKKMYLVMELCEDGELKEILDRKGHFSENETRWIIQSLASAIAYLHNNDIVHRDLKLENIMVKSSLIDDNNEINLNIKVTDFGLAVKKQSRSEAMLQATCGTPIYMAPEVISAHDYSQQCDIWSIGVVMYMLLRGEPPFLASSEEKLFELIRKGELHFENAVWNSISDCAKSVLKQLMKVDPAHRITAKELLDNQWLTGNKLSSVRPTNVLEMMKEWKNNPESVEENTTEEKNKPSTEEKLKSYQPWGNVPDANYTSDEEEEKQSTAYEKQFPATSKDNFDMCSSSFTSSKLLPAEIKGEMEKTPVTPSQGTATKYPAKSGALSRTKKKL

STK4 (human) = STK4 (human) (UniProt Q13043)
TSSK1B (human) = TSSK1B (human) (UniProt Q9BXA7)

CAMKK2 (human), sequence (Q96RR4 whole entry, looked up): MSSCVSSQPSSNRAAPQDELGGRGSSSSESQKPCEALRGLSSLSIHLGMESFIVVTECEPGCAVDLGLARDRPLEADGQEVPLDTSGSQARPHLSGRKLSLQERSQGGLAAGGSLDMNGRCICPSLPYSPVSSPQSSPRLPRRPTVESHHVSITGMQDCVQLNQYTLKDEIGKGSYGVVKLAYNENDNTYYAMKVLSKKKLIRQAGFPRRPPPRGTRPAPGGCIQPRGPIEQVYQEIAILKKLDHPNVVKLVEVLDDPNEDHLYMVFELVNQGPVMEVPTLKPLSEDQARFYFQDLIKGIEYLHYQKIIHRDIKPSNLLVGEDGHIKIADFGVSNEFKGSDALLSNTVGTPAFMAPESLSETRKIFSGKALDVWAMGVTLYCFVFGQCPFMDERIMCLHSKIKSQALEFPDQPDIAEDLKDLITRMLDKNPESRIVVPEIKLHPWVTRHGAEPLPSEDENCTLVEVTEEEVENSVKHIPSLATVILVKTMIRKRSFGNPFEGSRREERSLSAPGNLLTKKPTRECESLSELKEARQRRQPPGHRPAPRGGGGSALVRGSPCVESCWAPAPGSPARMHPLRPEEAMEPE

## COc1cc2ncnc(Nc3ccc(Oc4ccccc4)cc3)c2cc1OC
ACVRL1 (human)
  residual activity: 100%
CAMK2B (human)
  residual activity: 98.2%
CAMKK2 (human)
  residual activity: 104%
CHUK (human)
  residual activity: 101%
CSNK1E (human)
  residual activity: 100%
CSNK1G1 (human)
  residual activity: 90%
DAPK3 (human)
  residual activity: 96.9%
EGFR (human)
  residual activity: 31.6%
EPHA2 (human)
  residual activity: 106%
EPHB2 (human)
  residual activity: 99.7%
ERBB2 (human)
  residual activity: 29.5%
FER (human)
  residual activity: 75.7%
GRK6 (human)
  residual activity: 99.6%
GSK3A (human)
  residual activity: 97%
INSRR (human)
  residual activity: 102%
IRAK1 (human)
  residual activity: 122%
[1]
  residual activity: 102%
MAP3K2 (human)
  residual activity: 102%
MAP3K7 TAB1 (human)
  residual activity: 102%
MAPK13 (human)
  residual activity: 103%
MERTK (human)
  residual activity: 51.2%
MLTK (human)
  residual activity: 95.2%
MYLK2 (human)
  residual activity: 101%
NEK1 (human)
  residual activity: 101%
NLK (human)
  residual activity: 100%
NTRK1 (human)
  residual activity: 101%
PAK3 (human)
  residual activity: 98.1%
PAK6 (human)
  residual activity: 109%
PDGFRB (human)
  residual activity: 95.6%
PLK3 (human)
  residual activity: 97.1%
PRKCG (human)
  residual activity: 84.6%
PRKD2 (human)
  residual activity: 100%
PTK2 (human)
  residual activity: 98.1%
PTK2B (human)
  residual activity: 89%
RPS6KA4 KD2 (human)
  residual activity: 94.4%
RPS6KA6 KD1 KD2 (human)
  residual activity: 111%
SRPK1 (human)
  residual activity: 105%
SRPK3 (human)
  residual activity: 94.8%
STK25 (human)
  residual activity: 109%
STK33 (human)
  residual activity: 96.3%
STK4 (human)
  residual activity: 107%
TSSK1B (human)
  residual activity: 104%
